{"source": "patent US4020164A", "about": "“Benzomorphan derivatives” (priority 1972, dated 1977)", "key": {"[1]": {"tested_on": "electroshock", "experiment": "Maximal electroshock test", "format": "in vivo", "conditions": "Mus musculus, sc, 0.5 h; mice; 16 mA/50 c.p.s., 0.2 second, transcorneal; absence of tonic extensor cramp of hind limbs, 30 min", "protocol": "10-40 controls animals were used in each experiment. […] ED50 figures were rounded.\nIn the maximum electroshock test, the test substances were administered to dose groups of 6 mice. Sinusoidal pulses of 16 milliamperes/50 c.p.s. [Hertz] and 0.2 second duration were delivered transcorneally via silver electrodes. The shock intensity used elicits nonlethal tonic-clonic convulsions in control animals (p <0.01, N = 192). The criterion for protective effect was the absence of the tonic extensor cramp of the hind limbs after shock application (modified test according to Swinyard et al., J. Pharmacol. Exp. Ther. 106, 319, 1952)."}, "[2]": {"tested_on": "morphine", "experiment": "animal or person", "format": "in vivo, rats"}, "[3]": {"tested_on": "morphine", "experiment": "Precipitated Withdrawal Jumping Test (morphine antagonism in morphine-dependent mice)", "format": "in vivo", "conditions": "morphine-dependent mice", "protocol": "(§1) The pharmacological investigations were conducted on mice weighing 20-22 g. or on rats weighing 80-110 g. Unless indicated otherwise, the test substances were administered in the form of the hydrochloride acid addition salt thereof in an isotonic NaCl solution, and the animals were examined 30 minutes after subcutaneous (sc) application. The injection volume was respectively 5 ml./kg. of body weight. 10-40 controls animals were used in each experiment. The test and control solutions were administered in accordance with a randomized injection schedule. Seven logarithmically spaced dosages were employed of each test substance. The effective dose (ED) was calculated by probit analysis (Finney, D. J., \"Probit Analysis,\" Cambridge University Press, 2nd Edition, Cambridge 1957). ED50 figures were rounded.\nThe test compound was given to dose groups of 8 animals. The antagonist-precipitated withdrawal jumping frequencies were recorded during three 5-minute observation intervals uniformly distributed over 30 minutes after administration of the test compound. […] The criterion for a precipitating effect is a mean jumping frequency of >1/minute."}, "[4]": {"tested_on": "morphine", "design": "species or system mice", "conditions": "mouse, in vivo"}, "[5]": {"tested_on": "naloxone", "experiment": "Naloxone challenge after subchronic administration of test compound (physical dependency)", "conditions": "mice; naloxone in doses of up to 100 mg/kg; same schedule and total dosage as for acute morphine dependency"}, "[6]": {"tested_on": "phenylquinone", "experiment": "Writhing test, acute (phenylquinone writhing, analgesic activity)", "format": "in vivo", "conditions": "Mus musculus, mice, acute, phenylquinone 2 mg/kg i.p., hydrochloride", "protocol": "as §1\n(§2) In the acute test, the test compounds were administered perorally (p.o.) or subcutaneously (s.c.) to mice. Eight mice were used per dose. Seven minutes prior to the testing, the animals received 2 mg./kg. of phenylquinone intraperitoneally. […] The criterion for protective effect was absence of writhes during the eighth minute after phenylquinone administration."}, "[7]": {"tested_on": "phenylquinone", "conditions": "mice; after subchronic administration of equal total doses", "protocol": "as §1, §2\nIn the subchronic test, the same test was performed 25 hours after the last injection of a 64-hour pretreatment period, with the test compound being administered subcutaneously. During the pretreatment period, the subjects received a total of 550 mg/kg. of the test compound, with the test compound being injected over a period of 22 hours in 4 increasing dosages in salt form, and over an additional 42 hours in 2 identical dosages in free base form in sesame oil."}, "[8]": {"tested_on": "apomorphine", "experiment": "Apomorphine antagonism test", "format": "in vivo, mice", "conditions": "Mus musculus, sc, read-out: ED50, Apomorphine Antagonism", "protocol": "as §1\nThe criterion for antagonistic effect was the absence of stereotyped movements within an observation period of one minute."}}, "note": "Read-outs that look alike come from different tables or passages of the source.", "data": [{"compound": "CC(C)=CCN1CCC2(C)c3cc(O)ccc3CC1C2C", "note": "(centres unmarked) [Pentazocine, reference compound]", "values": [{"measurement": "ED50", "setting": "[1]", "value": 17, "unit": "mg/kg"}, {"measurement": "ED50", "setting": "[2]; Rattus norvegicus, sc, read-out: ED50, Morphine Antagonism-Tail-Flick Test, Rats", "value": 40, "unit": "mg/kg"}, {"measurement": "morphine-antagonistic activity, tail-flick test (in words), rats", "setting": "[2]; rat, in vivo", "value": "weaker activity, especially in rats"}, {"measurement": "precipitated withdrawal effect (in words)", "setting": "[3]", "value": "completely inactive"}, {"measurement": "ED50, Precipitated Withdrawal Jumping Test (inactive, footnote 3)", "setting": "[3]; tested at 0.78 - 50 mg/kg", "value": "Inactive"}, {"measurement": "morphine-antagonistic activity, tail-flick test (in words), mice", "setting": "[4]", "value": "weaker activity"}, {"measurement": "ED50, Morphine Antagonism-Tail-Flick Test, Mice", "setting": "[4]; sc, 12.5 mg/kg", "value": 5, "unit": "mg/kg"}, {"measurement": "withdrawal jumping precipitated by naloxone after subchronic administration (morphine-like physical dependency)", "setting": "[5]", "value": "no withdrawal jumping is precipitated"}, {"measurement": "ED50", "setting": "[6]; po, 10 min, p.o., 10 min p.i., ED50 rounded, read-out: ED50, writhing test, acute p.o., 10 min. p.i.", "value": 50, "unit": "mg/kg"}, {"measurement": "ED50", "setting": "[6]; po, 0.5 h, p.o., 30 min p.i., ED50 rounded, read-out: ED50, writhing test, acute p.o., 30 min. p.i.", "value": 70, "unit": "mg/kg"}, {"measurement": "ED50", "setting": "[6]; sc, 10 min, s.c., 10 min p.i., ED50 rounded, read-out: ED50, writhing test, acute s.c., 10 min. p.i.", "value": 3, "unit": "mg/kg"}, {"measurement": "ED50", "setting": "[6]; sc, 0.5 h, s.c., 30 min p.i., * = significant difference between acute and subchronic ED50 (p < 0.001), read-out: ED50, writhing test, acute s.c., 30 min. p.i.", "value": 3, "unit": "mg/kg"}, {"measurement": "tolerance development", "setting": "[7]", "value": "do not exhibit tolerance development"}, {"measurement": "ED50", "setting": "[8]", "value": 40, "unit": "mg/kg"}]}]}
